Tests used:
[1] = biological target: T1, human orexin-1 receptor (Homo sapiens, UniProt O43613); experiment: Intracellular calcium measurement (FLIPR Tetra), orexin receptor antagonistic activity, OX1; assay type: cell-based; details: CHO cells expressing human orexin-1 receptor, 3 nM orexin-A, conditions B, normalized (*) using IC50 of on-plate reference compound
T1 construct: expressed in transfected cells; host or cells: CHO (Chinese hamster ovary) cells, kept under G418 selection
T1 sequence (O43613 1-425): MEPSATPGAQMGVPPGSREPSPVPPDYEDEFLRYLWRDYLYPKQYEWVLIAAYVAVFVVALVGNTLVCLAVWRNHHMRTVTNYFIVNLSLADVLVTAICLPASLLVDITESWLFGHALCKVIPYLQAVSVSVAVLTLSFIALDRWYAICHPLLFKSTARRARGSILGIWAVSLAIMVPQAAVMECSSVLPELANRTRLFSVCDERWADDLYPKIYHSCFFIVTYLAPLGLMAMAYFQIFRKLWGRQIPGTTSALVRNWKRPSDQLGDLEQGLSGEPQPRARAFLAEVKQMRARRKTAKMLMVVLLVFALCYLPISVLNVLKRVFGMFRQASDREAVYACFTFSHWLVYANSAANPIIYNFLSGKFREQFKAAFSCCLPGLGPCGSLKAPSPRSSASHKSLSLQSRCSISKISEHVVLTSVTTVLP
Summary of the method: (§1)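 Recombinant CHO cells expressing human OX1 or OX2, loaded with fluo-4 AM plus probenecid, were preincubated with antagonist 10 min, then stimulated with 3 nM human orexin-A. Peak fluorescence was compared with vehicle; IC50 derived, sometimes normalized to an on-plate reference compound; two pipetting/cell-splitting conditions were used.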

[2] = biological target: T2, human orexin-2 receptor (Homo sapiens, UniProt O43614); experiment: Intracellular calcium measurement (FLIPR Tetra), orexin receptor antagonistic activity, OX2; assay type: cell-based; details: CHO cells expressing human orexin-2 receptor, 3 nM orexin-A, conditions B, normalized (*) using IC50 of on-plate reference compound
T2 construct: expressed in transfected cells; host or cells: CHO (Chinese hamster ovary) cells, kept under G418 selection
T2 sequence (O43614 1-444): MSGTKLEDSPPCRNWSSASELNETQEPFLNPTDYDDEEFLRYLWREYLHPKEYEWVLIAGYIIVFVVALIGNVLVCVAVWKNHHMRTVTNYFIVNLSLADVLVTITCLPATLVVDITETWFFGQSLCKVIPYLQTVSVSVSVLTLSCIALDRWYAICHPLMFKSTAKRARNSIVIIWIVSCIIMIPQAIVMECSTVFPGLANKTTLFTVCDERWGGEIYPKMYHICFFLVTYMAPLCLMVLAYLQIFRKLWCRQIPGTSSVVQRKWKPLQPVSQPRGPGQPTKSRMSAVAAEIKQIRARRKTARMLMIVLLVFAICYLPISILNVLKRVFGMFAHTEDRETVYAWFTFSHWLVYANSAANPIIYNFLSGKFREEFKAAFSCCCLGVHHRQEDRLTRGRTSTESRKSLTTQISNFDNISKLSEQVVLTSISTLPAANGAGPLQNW
Summary of the method: as §1

| IC50 [1] [nM] | IC50 [2] [nM] | Compound |
| --- | --- | --- |
| 259 | 15 | COc1cccc(-c2ncncc2C(=O)N(CCc2c[nH]c3ccccc23)CC2CC2)c1 [Example 506, 4-(3-Methoxy-phenyl)-pyrimidine-5-carboxylic acid cyclopropylmethyl-[2-(1H-indol-3-yl)-ethyl]-amide] |
| 36 | 17 | O=C(c1cncnc1-c1ccc(Br)c(Cl)c1)N(CCc1c[nH]c2ccccc12)CC1CC1 [Example 513, 4-(4-Bromo-3-chloro-phenyl)-pyrimidine-5-carboxylic acid cyclopropylmethyl-[2-(1H-indol-3-yl)-ethyl]-amide] |
| 2930 | 151 | CCN(CCc1c[nH]c2ccccc12)C(=O)c1cncnc1-c1cccc(OC)c1 [Example 541, 4-(3-Methoxy-phenyl)-pyrimidine-5-carboxylic acid ethyl-[2-(1H-indol-3-yl)-ethyl]-amide] |
| 177 | 15 | CCN(CCc1c[nH]c2ccccc12)C(=O)c1cncnc1-c1ccc(Cl)c(Cl)c1 [Example 544, 4-(3,4-Dichloro-phenyl)-pyrimidine-5-carboxylic acid ethyl-[2-(1H-indol-3-yl)-ethyl]-amide] |
| 1160 | 130 | Cc1cccc(-c2ncncc2C(=O)N(CCc2c[nH]c3ccccc23)CC(F)(F)F)c1 [Example 549, 4-m-Tolyl-pyrimidine-5-carboxylic acid [2-(1H-indol-3-yl)-ethyl]-(2,2,2-trifluoro-ethyl)-amide] |
| 404 | 38 | COCCOc1cccc(-c2sc(C)nc2C(=O)N(CCc2c[nH]c3ccccc23)CC(=O)OC)c1 [Example 587, ([2-(1H-Indol-3-yl)-ethyl]-{5-[3-(2-methoxy-ethoxy)-phenyl]-2-methyl-thiazole-4-carbonyl}-amino)-acetic acid methyl ester] |
| 421 | 196 | COC(=O)CN(CCc1c[nH]c2ccc(F)cc12)C(=O)c1cnc(C)nc1-c1ccc(Cl)c(Cl)c1 [Example 604, {[4-(3,4-Dichloro-phenyl)-2-methyl-pyrimidine-5-carbonyl]-[2-(5-fluoro-1H-indol-3-yl)-ethyl]-amino}-acetic acid methyl ester] |
| 383 | 35 | Cc1cccc(-c2oc(C3CC3)nc2C(=O)N(CCc2c[nH]c3ccccc23)CC2CC2)c1 [Example 607, 2-Cyclopropyl-5-m-tolyl-oxazole-4-carboxylic acid cyclopropylmethyl-[2-(1H-indol-3-yl)-ethyl]-amide] |

More lines, now with the values behind:

| Compound | IC50 [1] [nM] | IC50 [2] [nM] |
| --- | --- | --- |
| Cc1ccc(-c2ncncc2C(=O)N(CCc2c[nH]c3ccccc23)CC2CC2)cc1C [Example 504, 4-(3,4-Dimethyl-phenyl)-pyrimidine-5-carboxylic acid cyclopropylmethyl-[2-(1H-indol-3-yl)-ethyl]-amide] | 31 | 17 |
| O=C(c1cncnc1-c1cccc(F)c1)N(CCc1c[nH]c2ccccc12)CC1CC1 [Example 510, 4-(3-Fluoro-phenyl)-pyrimidine-5-carboxylic acid cyclopropylmethyl-[2-(1H-indol-3-yl)-ethyl]-amide] | 352 | 25 |
| CCN(CCc1c[nH]c2ccccc12)C(=O)c1nccnc1-c1cccc(OC)c1 [Example 533, 3-(3-Methoxy-phenyl)-pyrazine-2-carboxylic acid ethyl-[2-(1H-indol-3-yl)-ethyl]-amide] | 2370 | 258 |
| CCN(CCc1c[nH]c2ccccc12)C(=O)c1cncnc1-c1ccc(Br)c(Cl)c1 [Example 536, 4-(4-Bromo-3-chloro-phenyl)-pyrimidine-5-carboxylic acid ethyl-[2-(1H-indol-3-yl)-ethyl]-amide] | 262 | 9 |
| Cc1cc(F)cc(-c2nccnc2C(=O)N(CCc2c[nH]c3ccccc23)CC(F)(F)F)c1 [Example 556, 3-(3-Fluoro-5-methyl-phenyl)-pyrazine-2-carboxylic acid [2-(1H-indol-3-yl)-ethyl]-(2,2,2-trifluoro-ethyl)-amide] | 425 | 212 |
| COC(=O)CN(CCc1c[nH]c2ccccc12)C(=O)c1nc(C)sc1-c1cccc(Br)c1 [Example 590, {[5-(3-Bromo-phenyl)-2-methyl-thiazole-4-carbonyl]-[2-(1H-indol-3-yl)-ethyl]-amino}-acetic acid methyl ester] | 468 | 10 |
